Assay results published in PMC2919388, “A Screening Pipeline for Antiparasitic Agents Targeting Cryptosporidium Inosine Monophosphate Dehydrogenase” (PLoS Neglected Tropical Diseases, 2010).
Where two headings read alike, the source gives them in different places.

Assays:
T. gondii-CpIMPDH = experiment: Fluorescent T. gondii growth assay, CpIMPDH reporter strain; assay type: cell-based, Toxoplasma gondii; conditions: for Selectivity = EC50(T. gondii-wild-type)/EC50(T. gondii-CpIMPDH): Figure 5 Sel; for EC50: Toxoplasma gondii, read-out: T. gondii model EC50 CpIMPDH, T. gondii-CpIMPDH, absence of xanthine
From the text: (§1) Wild-type T. gondii and T. gondii-ΔHXGPRT parasites were transfected with plasmid ptubYFPYFsagCAT [37] which drives constitutive cytoplasmic expression of two copies of the yellow fluorescent protein. Similarly, plasmid pCTR2T [38] was transfected into T. gondii-CpIMPDH resulting in constitutive cytoplasmic expression of a tandem of the tomato variant of the red fluorescent protein [39]. Fluorescent parasites were selected and cloned by cell sorting using a MoFlo Legacy instrument (Beckman Coulter, Inc). Growth of fluorescent clones was monitored in 96 well plates as previously described. Briefly, fluorescence was read daily with a SpectraMax M22/M2e (Molecular Devices) plate reader (Ex 485, Em 530) for 6–7 days. For each of the three fluorescent T. gondii clones percent growth inhibition was calculated on a day within the exponential phase of growth for the purpose of determining an IC50 for each compound.
To facilitate screening of antiparasitic activity, we constructed a T. gondii reporter parasite that mirrors the Cryptosporidium purine metabolism. Figure 1 summarizes the main differences between the two parasites in this pathway. We started with a T. gondii knockout mutant that, like C. parvum, lacks the ability to salvage xanthine and guanine via HXGPRT (T. gondii-ΔHXGPRT [41]) and introduced the CpIMPDH gene under the control of a T. gondii promoter. Next the native T. gondii IMPDH gene was disrupted by replacing the entire coding sequence with a chloramphenicol acetyl transferase cassette using a new cosmid-based gene targeting approach. […] This manipulation created strain T. gondii-CpIMPDH-ΔHXGPRT-ΔTgIMPDH. Lastly, we introduced a fluorescent protein cassette and isolated stable transgenic parasites by cell sorting. The resulting strain is referred to as T. gondii-CpIMPDH. […] We similarly engineered fluorescent versions of wild-type T. gondii and T. gondii-ΔHXGPRT to serve as controls.
(§2) Supplementary file pntd.0000794.s002.tif: Figure S2 Obtaining an EC50 value for T. gondii growth. Fluorescent T. gondii parasites are seeded into 96-well plates and spiked with test compound. Fluorescence is measured daily with a SpectraMax M22/M2e (Molecular Devices) plate reader for 6–7 days. The fluorescence readings on a day during the exponential phase of the growth curve, for example day 4 in A, are used to calculated percent growth inhibition. These values are fitted using the 4 parameter model y = D+(A–D)/(1+(x/C)^B) where D is the minimum value, A is the maximum value, C is the EC50 and B is the Hill coefficient, using the SoftMax Pro v5 software, as illustrated in B. The absolute EC50 is recorded at the x intercept where y = 50. (0.33 MB TIF) Click here for additional data file.

HCT-8 cells = experiment: Fluorescent HCT-8 host cell growth assay; assay type: cell-based, human; conditions: for activity at 25 µM: Homo sapiens, HCT-8, compound at 25 μM, relative to DMSO alone
Procedure: HCT-8 cells were transfected with plasmid pmaxGFP (Amaxa) using Lipofectamine (Invitrogen). Fluorescent lines were then selected and cloned using cell sorting. Confluent monolayers of pmaxGFP expressing cells were harvested from T75 flasks and passed through a 40 µm cell strainer. Cells were seeded at 4000 cells per well into black, optical quality, thin bottom, 96-well plates. All test compounds were diluted in DMSO as described. The fluorescence was read daily with a SpectraMax M22/M2e (Molecular Devices) plate reader (Ex 485, Em 530) for 6–7 days. Percent inhibition was calculated on a day within the exponential phase of growth.

C. parvum [1] = experiment: High-content imaging C. parvum growth assay (FITC-VVL); assay type: cell-based, Cryptosporidium parvum; conditions: for EC50: Cryptosporidium parvum, HCT-8, 48 h, growth in HCT-8 cells, 48 hours
Procedure: The human ileocecal adenocarcinoma epithelial cell line, HCT-8, was used to support C. parvum infection in vitro. HCT-8 cells were maintained in RPMI-1640 (Hyclone) supplemented with 10% FBS, 1 mM sodium pyruvate, 50 U/m penicillin, 50 µg/ml streptomycin, and amphotericin B. Cryptosporidium parvum oocysts were a kind gift from either Dr. Mead (Emory University) or Dr. Kissinger (University of Georgia). HCT-8 cells (2×10^5) were seeded into black, optical quality, thin bottom, 96-well plates (DB Falcon) to achieve a 70% confluent monolayer on the day of infection. To facilitate oocyst excystation, a procedure described by Gut et al., was followed. Briefly, oocysts were washed twice with 1 ml of PBS (pH 7.2), incubated for 10 minutes at 37°C in 1 ml 10 mM of HCl and then incubated for a further 10 minutes in 0.2 ml of 200 µM sodium taurocholate at 15°C [40]. This oocyst suspension was diluted directly with DMEM (Hyclone) supplemented with 2% FBS, 50 U/ml penicillin, 50 µg/ml streptomycin, amphotericin B and 0.2 mM L-glutamine (infection medium) to inoculate host cell monolayers at 5×10^5 oocysts per well. Host cell monolayers were incubated for 3 hours at 37°C prior to removal of unexcysted oocysts by aspiration and PBS wash. Infection medium was then added to the monolayers and infection was allowed to progress for 48 hours.
The VVL IFA was performed in a 96-well format. Following 48 hours of culture C. parvum infected HCT-8 cells were washed with PBS and fixed with 0.2 ml/well of 3% paraformaldehyde/PBS, permeabilized with 0.25% Triton-X-100/PBS and blocked with 4% BSA/PBS. 0.1 ml of fluorescein (FITC)-conjugated VVL (Vector Labs 0.5 µg/ml) in 1% BSA/PBS was applied to wells and incubated for 45 minutes. The plates were washed twice with 200 µl/well of PBS. In the first wash DAPI was included at 0.1 µg/ml. Finally 200 µl/well of PBS was added to the plates prior to storage at 4°C protected from light.
Confocal images were acquired using a BD Biosciences Bioimager P435. The instrument was programmed to automatically change position and focus, capture montage images of 9–16, 40× fields per well, and then compress and save the image files. Object finding algorithms were developed for the recognition of FITC-VVL labelled C. parvum parasites and DAPI labelled host cell nuclei using Attovision Software (BD Biosciences). Briefly, to identify FITC-VVL labelled parasites, the object finding algorithm included, a flat field correction, a polygon shape setting, a 3×3 rolling ball filter, manual pixel intensity thresholding (100 min – 4095 max), and minimum and maximum object size cut-offs of 5 pixels and 350 pixels respectively. The algorithm optimised for finding DAPI labelled host cell nuclei also included flat field correction and polygon shape setting, but applied a 25×25 rolling ball filter which is more suitable for larger objects, an automated pixel intensity threshold, minimum and maximum object size cut-offs of 200 pixels and 4000 pixels respectively, and a watershed step with an erosion factor of 8 to aid in the separation of adjacent densely packed nuclei. Note that the intensity and area size cut off exclude detection of the much smaller parasite nuclei (the human genome is three hundred times larger than the C. parvum genome).
The object finding analysis steps described above recorded the number and area of objects per montage image. The output files along with a plate map file were then passed to an automated analysis pipeline (Pipeline Pilot Software, Accelrys) to calculate the mean number of parasites, the ratio of parasite number to host cell nuclei number, the mean area of parasites and host cell nuclei by well, and the percentage growth by treatment as compared to the no drug control. These analyses were exported in graphical format for each plate and the numerical values tabulated in html format. […]

CpIMPDH [2] = biological target: T1, CpIMPDH (Cryptosporidium parvum, UniProt Q8T6T2); experiment: CpIMPDH enzyme inhibition (without or with BSA); assay type: biochemical; conditions: compound not previously described
Procedure: We wondered if some compounds might be binding nonspecifically to other proteins. To test this hypothesis, CpIMPDH inhibition was also evaluated in the presence of BSA [22]. […] Selectivity in the T. gondii model also correlates well with the potency of enzyme inhibition in the presence of BSA (Figure 7C; r = −0.92, p<0.0001). These observations indicate that the IC50 value in the presence of BSA is a useful proxy for antiparasitic activity modelled by T. gondii-CpIMPDH proliferation.

T. gondii-ΔHXGPRT = experiment: Fluorescent T. gondii growth assay, ΔHXGPRT strain; assay type: cell-based; conditions: Toxoplasma gondii, read-out: T. gondii model EC50 ΔHXGPRT, T. gondii-ΔHXGPRT
From the text: as §1, §2

wild-type T. gondii = experiment: Fluorescent T. gondii growth assay, wild-type strain; assay type: cell-based, Toxoplasma gondii; conditions: Toxoplasma gondii, wild-type T. gondii, no added xanthine; read-out: T. gondii model EC50 WT
From the text: as §1, §2

CpIMPDH [3] = biological target: T1, CpIMPDH; conditions: read-out: CpIMPDH Inhibition IC50 + BSA; cited from earlier work
C. parvum [4] = conditions: several previous studies; read-out: reported EC50 values for C. parvum growth; cited from earlier work

T1 sequence (Q8T6T2 whole entry): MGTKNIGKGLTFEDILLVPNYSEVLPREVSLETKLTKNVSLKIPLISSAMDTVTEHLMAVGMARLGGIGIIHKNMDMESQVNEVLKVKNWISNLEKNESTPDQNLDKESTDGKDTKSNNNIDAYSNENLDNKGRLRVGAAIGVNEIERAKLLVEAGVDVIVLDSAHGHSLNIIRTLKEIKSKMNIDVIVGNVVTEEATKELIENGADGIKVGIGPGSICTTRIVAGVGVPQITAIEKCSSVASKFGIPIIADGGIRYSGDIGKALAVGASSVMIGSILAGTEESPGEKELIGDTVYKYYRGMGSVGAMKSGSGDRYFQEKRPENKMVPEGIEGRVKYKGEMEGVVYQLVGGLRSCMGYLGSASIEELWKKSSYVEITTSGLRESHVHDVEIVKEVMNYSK

CC(Oc1cccc2ncccc12)c1cn(-c2ccc(Cl)cc2)nn1 (stereo not shown) [Compound A99]
selectivity for the T. gondii-CpIMPDH parasite over wild-type T. gondii (T. gondii-CpIMPDH): ≥ 17 fold | Selectivity = EC50(T. gondii-wild-type)/EC50(T. gondii-CpIMPDH) (T. gondii-CpIMPDH): > 17 | EC50 (T. gondii-CpIMPDH): < 0.2 µM | activity at 25 µM (HCT-8 cells): 58 ± 8% | EC50 (C. parvum [1]): 12 to 25 µM | IC50 (CpIMPDH [2]; in the presence of BSA): 0.076 ± 0.009 µM | IC50 (CpIMPDH [2]; without BSA): 0.031 ± 0.001 µM | EC50 (T. gondii-ΔHXGPRT): 3.4 µM | EC50 (wild-type T. gondii): 4.7 µM

C[C@@H](Oc1cccc2c1ccc[n+]2[O-])c1cn(-c2ccc(Cl)cc2)nn1 [Compound A109]
selectivity for the T. gondii-CpIMPDH parasite over wild-type T. gondii (T. gondii-CpIMPDH): ≥ 36 fold | Selectivity = EC50(T. gondii-wild-type)/EC50(T. gondii-CpIMPDH) (T. gondii-CpIMPDH): > 86 | EC50 (T. gondii-CpIMPDH): 0.3 ± 0.1 µM | IC50 (CpIMPDH [3]): 0.05 ± 0.01 µM | activity at 25 µM (HCT-8 cells): 89 ± 16% | EC50 (C. parvum [1]): 12 to 25 µM | EC50 (T. gondii-ΔHXGPRT): > 25 µM | EC50 (wild-type T. gondii): > 25 µM

NC[C@@H]1O[C@H](O[C@H]2[C@@H](O)[C@H](O[C@@H]3[C@@H](O)[C@H](N)C[C@H](N)[C@H]3O[C@H]3O[C@H](CO)[C@@H](O)[C@H](O)[C@H]3N)O[C@@H]2CO)[C@H](N)[C@@H](O)[C@@H]1O [paromomycin, reference compound]
EC50 (C. parvum [4]): 65 to 130 µM | effect on host cell (HCT-8) growth (HCT-8 cells; in words): negligible effects on the growth of these cells | EC50 (C. parvum [1]): 97 µM | mean parasite area (C. parvum [1]; relative to DMSO alone): significantly reduce the mean parasite area in a dose responsive manner | parasites observed relative to the no drug control (C. parvum [1]; very high concentrations of paromomycin): ~30%
